This passage reports IC50 results from patent US12336981B2, “Compounds and compositions for the inhibition of NAMPT” (Valo Health, Inc., priority 2010, dated 2025).

Like-named read-outs stand apart in the source and are kept apart here.

One assay has as its target T1, NAMPT (Homo sapiens, UniProt P43490).
T1 construct: His tag; host or cells: E. coli
The assay is described as follows: Biochemical inhibition assay: NAMPT enzymatic reaction, NMN quantified by mass spectrometry. The note with it: read-out: Biochem IC50. Summed up:
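Inhibition of E. coli-expressed His-tagged human NAMPT, measured as NMN formation by mass spectrometry after a 30 min room-temperature reaction containing 1 μM NAM, 100 μM PRPP and 2.5 mM ATP.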

For another assay, the system named is A2780 cells. Put plainly: In-vitro cell proliferation assay (SRB), A2780 cells. The note with it: Homo sapiens, A2780, 72 h, A2780 cells, 72 hours, read-out: A2780 IC50. It is filed as cell-based. Summed up: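 Cells were plated overnight at 37° C., 5% CO2, then exposed to serially diluted compounds (0.1% DMSO final) for 72 hours. Viable cells were measured by sulforhodamine B staining after TCA fixation, read at 570 nm; media-only background was subtracted before % inhibition was calculated.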

T1 sequence (P43490 whole entry): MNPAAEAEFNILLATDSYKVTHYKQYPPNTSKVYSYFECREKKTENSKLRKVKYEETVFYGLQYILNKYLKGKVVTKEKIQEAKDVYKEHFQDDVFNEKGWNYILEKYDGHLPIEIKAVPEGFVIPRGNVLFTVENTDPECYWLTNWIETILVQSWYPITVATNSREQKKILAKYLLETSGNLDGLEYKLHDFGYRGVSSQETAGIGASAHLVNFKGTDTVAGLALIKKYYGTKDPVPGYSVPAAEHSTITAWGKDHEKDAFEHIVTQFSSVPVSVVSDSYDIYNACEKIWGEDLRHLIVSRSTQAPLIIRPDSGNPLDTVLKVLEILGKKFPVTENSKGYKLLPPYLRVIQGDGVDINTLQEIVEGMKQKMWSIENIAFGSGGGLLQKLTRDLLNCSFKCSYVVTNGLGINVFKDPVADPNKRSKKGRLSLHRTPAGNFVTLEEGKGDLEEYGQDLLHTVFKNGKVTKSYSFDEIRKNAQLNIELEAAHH

In the case of `Cc1ccncc1S(=O)(=O)c1ccc(CNC(=O)c2cnc3[nH]ncc3c2)cc1` [N-{[4-(4-methylpyridine-3-sulfonyl)phenyl]methyl}-1H-pyrazolo[3,4-b]pyridine-5-carboxamide], the figures for the IC50 at NAMPT (NAMPT enzymatic assay) and in the assay with A2780 cells (SRB) were 100 to 1000 nM and 271 nM, respectively.

On to `Cc1ccncc1S(=O)(=O)c1ccc(CNC(=O)c2cc3cnccc3[nH]2)cc1` [N-{[4-(4-methylpyridine-3-sulfonyl)phenyl]methyl}-1H-pyrrolo[3,2-c]pyridine-2-carboxamide], for which the half-maximal inhibitory concentration (IC50) on NAMPT (NAMPT enzymatic assay) is 260 nM; in the assay on A2780 cells (SRB) it was 25.8 nM.

On to `Cc1ccncc1S(=O)(=O)c1ccc(CNC(=O)c2cc3ccncc3o2)cc1` [N-{[4-(4-methylpyridine-3-sulfonyl)phenyl]methyl}furo[2,3-c]pyridine-2-carboxamide], for which the IC50 at NAMPT (NAMPT enzymatic assay) was 25.2 nM; with A2780 cells (SRB), 62 nM.

On to `Cc1ccncc1S(=O)(=O)c1ccc(CNC(=O)c2ccc3nccn3c2)cc1` [N-{[4-(4-methylpyridine-3-sulfonyl)phenyl]methyl}imidazo[1,2-a]pyridine-6-carboxamide], for which the IC50 on NAMPT (NAMPT enzymatic assay) worked out at 66.5 nM; in the assay with A2780 cells (SRB), 65.8 nM.

Regarding `Cc1ccncc1S(=O)(=O)c1ccc(CNC(=O)c2cnc3nccn3c2)cc1` [N-{[4-(4-methylpyridine-3-sulfonyl)phenyl]methyl}imidazo[1,2-a]pyrimidine-6-carboxamide], the 50% inhibitory concentration (IC50) at NAMPT (NAMPT enzymatic assay) was 19.1 nM; in the assay on A2780 cells (SRB), 100 to 1000 nM.

Regarding `Cc1ccncc1S(=O)(=O)c1ccc(CNC(=O)c2cc3ccncc3s2)cc1` [N-{[4-(4-methylpyridine-3-sulfonyl)phenyl]methyl}thieno[2,3-c]pyridine-2-carboxamide], the 50% inhibitory concentration (IC50) is 29.2 nM on NAMPT (NAMPT enzymatic assay) and 22.5 nM in the assay with A2780 cells (SRB).

For the molecule `Cc1csc(S(=O)(=O)c2ccc(CNC(=O)c3ccc4nccn4c3)cc2)c1` [N-{[4-(4-methylthiophene-2-sulfonyl)phenyl]methyl}imidazo[1,2-a]pyridine-6-carboxamide], the results for the IC50 at NAMPT (NAMPT enzymatic assay) and in the assay on A2780 cells (SRB) were 12.4 nM and 12.5 nM, respectively.

On to `Cc1cc(Cl)cnc1S(=O)(=O)c1ccc(CNC(=O)c2cnc3[nH]ncc3c2)cc1` [N-{[4-(5-chloro-3-methylpyridine-2-sulfonyl)phenyl]methyl}-1H-pyrazolo[3,4-b]pyridine-5-carboxamide], for which the concentration for half-maximal inhibition (IC50) amounted to 62.5 nM at NAMPT (NAMPT enzymatic assay) and 75.3 nM in the assay on A2780 cells (SRB).

As for `Cc1cc(Cl)cnc1S(=O)(=O)c1ccc(CNC(=O)c2cc3ccncc3o2)cc1` [N-{[4-(5-chloro-3-methylpyridine-2-sulfonyl)phenyl]methyl}furo[2,3-c]pyridine-2-carboxamide], the IC50 at NAMPT (NAMPT enzymatic assay) is 9.9 nM; in the assay with A2780 cells (SRB) it was 16.5 nM.

Regarding `Cc1cc(Cl)cnc1S(=O)(=O)c1ccc(CNC(=O)c2ccc3nccn3c2)cc1` [N-{[4-(5-chloro-3-methylpyridine-2-sulfonyl)phenyl]methyl}imidazo[1,2-a]pyridine-6-carboxamide], the IC50 on NAMPT (NAMPT enzymatic assay) was 18.8 nM; with A2780 cells (SRB), 8 nM.

Regarding `Cc1cc(Cl)cnc1S(=O)(=O)c1ccc(CNC(=O)c2cnc3nccn3c2)cc1` [N-{[4-(5-chloro-3-methylpyridine-2-sulfonyl)phenyl]methyl}imidazo[1,2-a]pyrimidine-6-carboxamide], the IC50 at NAMPT (NAMPT enzymatic assay) was found to be 2.2 nM; in the assay with A2780 cells (SRB), 22 nM.

Regarding `Cc1cc(Cl)cnc1S(=O)(=O)c1ccc(CNC(=O)c2cc3ccncc3s2)cc1` [N-{[4-(5-chloro-3-methylpyridine-2-sulfonyl)phenyl]methyl}thieno[2,3-c]pyridine-2-carboxamide], the IC50 on NAMPT (NAMPT enzymatic assay) amounted to 3.9 nM; in the assay on A2780 cells (SRB) it was 7.2 nM.

In the case of `O=C(NCc1ccc(S(=O)(=O)c2cncc(Cl)c2)cc1)c1cnc2[nH]ncc2c1` [N-{[4-(5-chloropyridine-3-sulfonyl)phenyl]methyl}-1H-pyrazolo[3,4-b]pyridine-5-carboxamide], the half-inhibitory concentration (IC50) amounted to 23.8 nM at NAMPT (NAMPT enzymatic assay) and 6.2 nM in the assay with A2780 cells (SRB).

Turning to `O=C(NCc1ccc(S(=O)(=O)c2cncc(Cl)c2)cc1)c1cc2cnccc2[nH]1` [N-{[4-(5-chloropyridine-3-sulfonyl)phenyl]methyl}-1H-pyrrolo[3,2-c]pyridine-2-carboxamide], the IC50 at NAMPT (NAMPT enzymatic assay) worked out at 20 nM; in the assay with A2780 cells (SRB), 3.6 nM.

On to `Cc1nc(S(=O)(=O)c2ccc(CNC(=O)c3cc4ccncc4o3)cc2)ccc1F` [N-{[4-(5-fluoro-6-methylpyridine-2-sulfonyl)phenyl]methyl}furo[2,3-c]pyridine-2-carboxamide], for which the IC50 at NAMPT (NAMPT enzymatic assay) was 6.2 nM; in the assay with A2780 cells (SRB), 12.4 nM.

In the case of `Cc1nc(S(=O)(=O)c2ccc(CNC(=O)c3cc4ccncc4s3)cc2)ccc1F` [N-{[4-(5-fluoro-6-methylpyridine-2-sulfonyl)phenyl]methyl}thieno[2,3-c]pyridine-2-carboxamide], the values for the IC50 at NAMPT (NAMPT enzymatic assay) and in the assay on A2780 cells (SRB) were 8.3 nM and 7.1 nM, respectively.

As to `O=C(NCc1ccc(S(=O)(=O)c2cncc(F)c2)cc1)c1cnc2[nH]ncc2c1` [N-{[4-(5-fluoropyridine-3-sulfonyl)phenyl]methyl}-1H-pyrazolo[3,4-b]pyridine-5-carboxamide], the IC50 amounted to 79.2 nM on NAMPT (NAMPT enzymatic assay) and 25.4 nM with A2780 cells (SRB).

With `O=C(NCc1ccc(S(=O)(=O)c2cncc(F)c2)cc1)c1cc2cnccc2[nH]1` [N-{[4-(5-fluoropyridine-3-sulfonyl)phenyl]methyl}-1H-pyrrolo[3,2-c]pyridine-2-carboxamide], the IC50 on NAMPT (NAMPT enzymatic assay) turned out to be 71.3 nM; with A2780 cells (SRB) it was 13.6 nM.

Regarding `O=C(NCc1ccc(S(=O)(=O)c2cncc(F)c2)cc1)c1ccc2nccn2c1` [N-{[4-(5-fluoropyridine-3-sulfonyl)phenyl]methyl}imidazo[1,2-a]pyridine-6-carboxamide], the figures for the half-maximal inhibitory concentration (IC50) on NAMPT (NAMPT enzymatic assay) and with A2780 cells (SRB) were 27.8 nM and 13.7 nM, respectively.

Regarding `O=C(NCc1ccc(S(=O)(=O)c2cncc(F)c2)cc1)c1cnc2nccn2c1` [N-{[4-(5-fluoropyridine-3-sulfonyl)phenyl]methyl}imidazo[1,2-a]pyrimidine-6-carboxamide], the concentration for half-maximal inhibition (IC50) at NAMPT (NAMPT enzymatic assay) was 6.7 nM; with A2780 cells (SRB) it was 56.4 nM.

As to `O=C(NCc1ccc(S(=O)(=O)c2cncc(F)c2)cc1)c1cc2ccncc2s1` [N-{[4-(5-fluoropyridine-3-sulfonyl)phenyl]methyl}thieno[2,3-c]pyridine-2-carboxamide], the IC50 on NAMPT (NAMPT enzymatic assay) worked out at 9.7 nM; in the assay with A2780 cells (SRB) it was 6.4 nM.

On to `COc1ccc(S(=O)(=O)c2ccc(CNC(=O)c3cc4ccncc4o3)cc2)nc1` [N-{[4-(5-methoxypyridine-2-sulfonyl)phenyl]methyl}furo[2,3-c]pyridine-2-carboxamide], for which the half-maximal inhibitory concentration (IC50) on NAMPT (NAMPT enzymatic assay) worked out at 7.9 nM; with A2780 cells (SRB), 31.6 nM.

As to `COc1ccc(S(=O)(=O)c2ccc(CNC(=O)c3ccc4nccn4c3)cc2)nc1` [N-{[4-(5-methoxypyridine-2-sulfonyl)phenyl]methyl}imidazo[1,2-a]pyridine-6-carboxamide], the IC50 came out at 22.9 nM on NAMPT (NAMPT enzymatic assay) and 17.3 nM in the assay on A2780 cells (SRB).

`COc1ccc(S(=O)(=O)c2ccc(CNC(=O)c3cc4ccncc4s3)cc2)nc1` [N-{[4-(5-methoxypyridine-2-sulfonyl)phenyl]methyl}thieno[2,3-c]pyridine-2-carboxamide]: the values for the half-maximal inhibitory concentration (IC50) at NAMPT (NAMPT enzymatic assay) and with A2780 cells (SRB) were 7.1 nM and 19.3 nM, respectively.

Take `COc1cncc(S(=O)(=O)c2ccc(CNC(=O)c3cnc4[nH]ncc4c3)cc2)c1` [N-{[4-(5-methoxypyridine-3-sulfonyl)phenyl]methyl}-1H-pyrazolo[3,4-b]pyridine-5-carboxamide]: the IC50 on NAMPT (NAMPT enzymatic assay) was 41.4 nM; in the assay on A2780 cells (SRB), 16.7 nM.

Consider `COc1cncc(S(=O)(=O)c2ccc(CNC(=O)c3ccc4nccn4c3)cc2)c1` [N-{[4-(5-methoxypyridine-3-sulfonyl)phenyl]methyl}imidazo[1,2-a]pyridine-6-carboxamide], for which the half-inhibitory concentration (IC50) at NAMPT (NAMPT enzymatic assay) stood at 9 nM; in the assay with A2780 cells (SRB), 3.4 nM.

Consider `COc1cncc(S(=O)(=O)c2ccc(CNC(=O)c3cnc4nccn4c3)cc2)c1` [N-{[4-(5-methoxypyridine-3-sulfonyl)phenyl]methyl}imidazo[1,2-a]pyrimidine-6-carboxamide], for which the IC50 was determined as 1.6 nM at NAMPT (NAMPT enzymatic assay) and 25.8 nM in the assay on A2780 cells (SRB).

Regarding `COc1cncc(S(=O)(=O)c2ccc(CNC(=O)c3cc4ccncc4s3)cc2)c1` [N-{[4-(5-methoxypyridine-3-sulfonyl)phenyl]methyl}thieno[2,3-c]pyridine-2-carboxamide], the concentration for half-maximal inhibition (IC50) at NAMPT (NAMPT enzymatic assay) came to 9 nM; with A2780 cells (SRB) it was 1.6 nM.

Consider `Cc1cncc(S(=O)(=O)c2ccc(CNC(=O)c3ccc4nccn4c3)cc2)c1` [N-{[4-(5-methylpyridine-3-sulfonyl)phenyl]methyl}imidazo[1,2-a]pyridine-6-carboxamide], for which the IC50 at NAMPT (NAMPT enzymatic assay) was determined as 36.8 nM; with A2780 cells (SRB), 7.1 nM.

As for `Cc1cncc(S(=O)(=O)c2ccc(CNC(=O)c3cnc4nccn4c3)cc2)c1` [N-{[4-(5-methylpyridine-3-sulfonyl)phenyl]methyl}imidazo[1,2-a]pyrimidine-6-carboxamide], the IC50 on NAMPT (NAMPT enzymatic assay) was found to be 2.2 nM; in the assay on A2780 cells (SRB), 12.4 nM.

Consider `Cc1cncc(S(=O)(=O)c2ccc(CNC(=O)c3cc4ccncc4s3)cc2)c1` [N-{[4-(5-methylpyridine-3-sulfonyl)phenyl]methyl}thieno[2,3-c]pyridine-2-carboxamide], for which the IC50 on NAMPT (NAMPT enzymatic assay) turned out to be 6 nM; in the assay with A2780 cells (SRB) it was 2.5 nM.

As to `Cc1ccc(S(=O)(=O)c2ccc(CNC(=O)c3cnc4[nH]ncc4c3)cc2)s1` [N-{[4-(5-methylthiophene-2-sulfonyl)phenyl]methyl}-1H-pyrazolo[3,4-b]pyridine-5-carboxamide], the concentration for half-maximal inhibition (IC50) at NAMPT (NAMPT enzymatic assay) was determined as 22.3 nM; with A2780 cells (SRB), 34.7 nM.

For `Cc1ccc(S(=O)(=O)c2ccc(CNC(=O)c3cc4cnccc4[nH]3)cc2)s1` [N-{[4-(5-methylthiophene-2-sulfonyl)phenyl]methyl}-1H-pyrrolo[3,2-c]pyridine-2-carboxamide], the IC50 at NAMPT (NAMPT enzymatic reaction) amounted to 7 nM; in the assay on A2780 cells (SRB assay) it was 13 nM.

In general, IC50 refers to the midpoint of a concentration-inhibition curve.
